Activity calls are given as the source filed them.
Columns and labels:
[1] = test system: HeLa; assay: HeLa cell cytotoxicity, dose response, cytotoxicity control for MITF activator project, CellTiter-Glo luminescence, cherry-pick samples (AID 540259); type: functional, cell-based; details: Homo sapiens
[2] = molecular target: Voltage-dependent T-type calcium channel subunit alpha-1H (Homo sapiens, UniProt O95180); type: functional;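 also: channel activity triggered by adding a high calcium stimulation buffer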
[3] = molecular target: T1, Coagulation factor XII (Homo sapiens, UniProt P00748); type: functional;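 also: activated factor XIIa alpha cleaving a fluorogenic AMC peptide substrate; inhibitor potency from loss of enzyme activity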
T1 sequence (P00748 whole entry): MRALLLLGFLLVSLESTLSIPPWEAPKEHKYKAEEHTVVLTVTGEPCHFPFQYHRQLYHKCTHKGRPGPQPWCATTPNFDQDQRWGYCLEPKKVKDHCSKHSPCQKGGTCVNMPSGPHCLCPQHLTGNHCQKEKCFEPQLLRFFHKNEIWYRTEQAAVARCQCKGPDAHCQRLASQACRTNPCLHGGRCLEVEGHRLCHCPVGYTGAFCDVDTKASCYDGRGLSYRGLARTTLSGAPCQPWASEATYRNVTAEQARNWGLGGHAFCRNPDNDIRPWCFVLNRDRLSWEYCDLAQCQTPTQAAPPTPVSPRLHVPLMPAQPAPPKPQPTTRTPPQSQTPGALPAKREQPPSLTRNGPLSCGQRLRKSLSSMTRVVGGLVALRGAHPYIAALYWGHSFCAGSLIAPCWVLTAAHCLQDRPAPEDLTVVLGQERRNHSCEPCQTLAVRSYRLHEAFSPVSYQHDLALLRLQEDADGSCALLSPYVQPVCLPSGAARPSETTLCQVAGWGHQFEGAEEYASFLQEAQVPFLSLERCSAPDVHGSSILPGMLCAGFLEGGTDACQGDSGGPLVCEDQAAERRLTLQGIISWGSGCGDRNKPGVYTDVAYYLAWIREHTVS

[4] = molecular target: Cytochrome P450 2D6 (Homo sapiens, UniProt P10635);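 also: CYP2D6 member of a cytochrome P450 panel assay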
[5] = molecular target: 72 kDa type IV collagenase (Homo sapiens, UniProt P08253); assay: Dose Response validation of uHTS RPN11 inhibitor hits using a MMP-2 Fluorescence assay.; type: functional
[6] = molecular target: Prothrombin (Bos taurus, UniProt P00735); assay: thrombin inhibition, dose response, biochemical, fluorescence polarization, uHTS hits (AID 602369); type: functional
[7] = molecular target: 26S proteasome non-ATPase regulatory subunit 14 (Homo sapiens, UniProt O00487); assay: inhibition of proteasome subunit RPN11 – biochemical, fluorescence polarization, uHTS hits, confirmation (AID 602368); type: functional
[8] = molecular target: Adenosylmethionine-8-amino-7-oxononanoate aminotransferase (Mycobacterium tuberculosis, UniProt P9WQ81); assay: Mycobacterium tuberculosis BioA enzyme inhibitor Measured in Biochemical System Using Plate Reader - 2163-02_Inhibitor_Dose_CherryPick_Activity.; type: functional, Mycobacterium tuberculosis UT205
[9] = molecular target: T2, Alkaline phosphatase, tissue-nonspecific isozyme (Homo sapiens, UniProt P05186); assay: human TNAP enzyme inhibitors, SAR follow-up, biochemical, luminescent, dose response (AID 1056)
T2 sequence (P05186 whole entry): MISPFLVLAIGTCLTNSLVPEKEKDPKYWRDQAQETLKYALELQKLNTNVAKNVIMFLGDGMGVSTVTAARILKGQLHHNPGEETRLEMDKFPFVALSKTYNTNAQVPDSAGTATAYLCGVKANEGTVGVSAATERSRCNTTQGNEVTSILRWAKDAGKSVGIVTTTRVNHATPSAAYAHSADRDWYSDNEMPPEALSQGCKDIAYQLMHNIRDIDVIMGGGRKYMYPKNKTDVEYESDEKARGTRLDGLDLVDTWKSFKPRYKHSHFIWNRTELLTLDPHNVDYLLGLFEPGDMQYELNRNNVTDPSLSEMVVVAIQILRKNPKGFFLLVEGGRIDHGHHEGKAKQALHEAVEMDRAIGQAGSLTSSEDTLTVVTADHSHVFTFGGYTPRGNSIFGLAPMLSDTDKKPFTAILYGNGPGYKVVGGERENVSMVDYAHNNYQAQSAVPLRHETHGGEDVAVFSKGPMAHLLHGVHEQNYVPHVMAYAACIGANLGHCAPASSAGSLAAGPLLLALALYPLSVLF

[10] = molecular target: Alkaline phosphatase, placental type (Homo sapiens, UniProt P05187); assay: PLAP enzyme inhibitors, confirmation, biochemical, luminescence (AID 1512); type: functional
[11] = molecular target: Glyceraldehyde-3-phosphate dehydrogenase (Homo sapiens, UniProt P04406)
[12] = test system: H9c2; assay: cells; type: functional, cell-based; details: Rattus norvegicus, H9c2, Myocardium;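 also: confirmatory concentration-response retest of ultra-high-throughput screening hits for modulation of myocardial damage; cell death induced by hydrogen peroxide oxidative stress; compound pretreatment for 60 min then peroxide exposure for 2 h; potency is for protecting the cells against peroxide damage rather than for killing them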
[13] = molecular target: T3, Nuclear receptor subfamily 0 group B member 1 (Homo sapiens, UniProt P51843); assay: Luminescence-based cell-based high throughput dose response assay for inhibitors of the orphan nuclear receptor subfamily 0, group B, member 1 (DAX1; NR0B1). [Related pubchem assays (depositor defined):AID504766, AID504790]; type: functional
T3 sequence (P51843 whole entry): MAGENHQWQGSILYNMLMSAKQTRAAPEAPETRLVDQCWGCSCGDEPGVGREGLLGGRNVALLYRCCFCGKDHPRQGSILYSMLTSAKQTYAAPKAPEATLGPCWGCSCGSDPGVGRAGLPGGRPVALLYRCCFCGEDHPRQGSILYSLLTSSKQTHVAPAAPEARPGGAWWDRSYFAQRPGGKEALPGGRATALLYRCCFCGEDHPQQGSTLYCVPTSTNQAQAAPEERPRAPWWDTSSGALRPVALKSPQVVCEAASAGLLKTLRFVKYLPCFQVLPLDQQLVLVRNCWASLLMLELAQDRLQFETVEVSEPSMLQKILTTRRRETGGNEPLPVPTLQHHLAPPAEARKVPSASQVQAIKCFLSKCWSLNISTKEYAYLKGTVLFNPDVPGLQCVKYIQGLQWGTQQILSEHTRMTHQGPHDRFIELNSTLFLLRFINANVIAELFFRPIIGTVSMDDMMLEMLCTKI

[14] = test system: HEK293; assay: cells; type: functional, cell-based; details: Homo sapiens
[15] = molecular target: T4, Heat shock factor protein 1 (Mus musculus, UniProt P38532); assay: HSF1 potentiators in luciferase reporter cells, confirmation, cell-based, NIH3T3, luminescence, dose retest (AID 435004); type: functional;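 also: stress induced by proteasome inhibitor MG132 added 30 min after compound; luciferase reporter driven by HSF1 response element in NIH3T3 cells; actives raise luminescence as potentiators of the MG132 stress response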
T4 sequence (P38532 whole entry): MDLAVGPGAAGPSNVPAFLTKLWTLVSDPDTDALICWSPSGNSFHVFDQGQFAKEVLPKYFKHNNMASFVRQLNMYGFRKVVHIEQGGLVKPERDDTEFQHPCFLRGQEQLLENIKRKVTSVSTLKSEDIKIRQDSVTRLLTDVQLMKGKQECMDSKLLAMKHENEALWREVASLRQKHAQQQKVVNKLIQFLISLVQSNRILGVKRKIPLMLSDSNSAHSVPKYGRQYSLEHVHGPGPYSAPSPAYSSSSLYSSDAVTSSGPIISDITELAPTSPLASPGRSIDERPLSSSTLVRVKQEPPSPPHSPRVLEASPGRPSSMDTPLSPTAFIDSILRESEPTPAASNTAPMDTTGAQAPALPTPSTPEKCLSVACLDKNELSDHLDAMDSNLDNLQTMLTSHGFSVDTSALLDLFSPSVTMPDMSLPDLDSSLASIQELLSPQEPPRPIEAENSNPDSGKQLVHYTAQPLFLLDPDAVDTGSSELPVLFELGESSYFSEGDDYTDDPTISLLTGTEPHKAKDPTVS

[16] = molecular target: Ras and Rab interactor 1/Tyrosine-protein kinase ABL1 (Homo sapiens, UniProt P00519+Q13671); type: functional;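 also: biochemical TR-FRET dose-response test measuring inhibition of binding between Rin1 and Abl proteins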
[17] = molecular target: T5, High affinity choline transporter 1 (Homo sapiens, UniProt Q9GZV3); assay: CHT inhibitors, dose response, cell-based, 10-point CRC, membrane potential dye (AID 588401); type: functional;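 also: membrane potential dye fluorescence of choline-evoked depolarization via CHT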
T5 sequence (Q9GZV3 whole entry): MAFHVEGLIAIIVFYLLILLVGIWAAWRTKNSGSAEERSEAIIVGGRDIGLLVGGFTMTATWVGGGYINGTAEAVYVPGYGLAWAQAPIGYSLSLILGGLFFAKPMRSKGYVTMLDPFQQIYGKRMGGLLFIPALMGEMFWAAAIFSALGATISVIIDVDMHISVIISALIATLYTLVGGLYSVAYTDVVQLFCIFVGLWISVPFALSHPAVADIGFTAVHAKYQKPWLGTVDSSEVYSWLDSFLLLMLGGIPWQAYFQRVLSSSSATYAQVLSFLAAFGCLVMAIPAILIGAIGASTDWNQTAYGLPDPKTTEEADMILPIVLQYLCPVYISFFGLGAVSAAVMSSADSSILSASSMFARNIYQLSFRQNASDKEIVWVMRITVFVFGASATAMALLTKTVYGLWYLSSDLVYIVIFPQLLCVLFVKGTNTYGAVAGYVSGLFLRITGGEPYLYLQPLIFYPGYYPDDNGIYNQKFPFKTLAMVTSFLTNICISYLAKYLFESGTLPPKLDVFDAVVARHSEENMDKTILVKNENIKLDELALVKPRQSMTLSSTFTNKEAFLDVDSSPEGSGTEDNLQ

[18] = molecular target: T5, High affinity choline transporter 1; assay: CHT inhibitors, dose response, cell-based, 5-point CRC, membrane potential dye (AID 504840); type: functional
[19] = test system: CHO; assay: cytotoxicity in TLR9-MyD88 CHO cells, dose response, cytotoxicity control for TLR9-MyD88 binding inhibitor project, cell-based, luminescence (AID 588339); type: functional, hamster; details: Cricetulus griseus;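 also: CHO cells stably coexpressing TLR9 and MyD88 fusions from primary screen; compound exposure lasted 48 hours before viability readout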
[20] = molecular target: T6, Hexokinase (Trypanosoma brucei, UniProt Q38C41); assay: Confirmation assay for inhibitors of Trypanosoma brucei hexokinase 1-Analogue-first series. [Related pubchem assays (depositor defined):AID1430, AID1632, AID2516, AID2560, AID2579, AID2600, AID449725, AID492951]; type: functional
T6 sequence (Q38C41 whole entry): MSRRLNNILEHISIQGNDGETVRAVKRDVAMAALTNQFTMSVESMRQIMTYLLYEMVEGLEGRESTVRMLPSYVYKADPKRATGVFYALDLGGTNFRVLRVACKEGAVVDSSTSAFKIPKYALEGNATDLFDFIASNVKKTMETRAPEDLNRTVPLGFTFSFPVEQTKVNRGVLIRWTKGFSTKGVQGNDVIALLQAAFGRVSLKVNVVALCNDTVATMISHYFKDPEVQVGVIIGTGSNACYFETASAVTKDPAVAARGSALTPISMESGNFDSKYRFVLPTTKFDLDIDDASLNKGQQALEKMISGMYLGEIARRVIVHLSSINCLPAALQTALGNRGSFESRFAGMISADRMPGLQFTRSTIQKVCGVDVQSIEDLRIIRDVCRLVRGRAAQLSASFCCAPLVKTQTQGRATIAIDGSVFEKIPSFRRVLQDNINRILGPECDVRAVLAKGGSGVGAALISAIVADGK

[21] = molecular target: T7, Mannose-6-phosphate isomerase (Homo sapiens, UniProt P34949); assay: PMI enzyme inhibitors, confirmation, biochemical, fluorescence intensity (AID 1535)
T7 sequence (P34949 whole entry): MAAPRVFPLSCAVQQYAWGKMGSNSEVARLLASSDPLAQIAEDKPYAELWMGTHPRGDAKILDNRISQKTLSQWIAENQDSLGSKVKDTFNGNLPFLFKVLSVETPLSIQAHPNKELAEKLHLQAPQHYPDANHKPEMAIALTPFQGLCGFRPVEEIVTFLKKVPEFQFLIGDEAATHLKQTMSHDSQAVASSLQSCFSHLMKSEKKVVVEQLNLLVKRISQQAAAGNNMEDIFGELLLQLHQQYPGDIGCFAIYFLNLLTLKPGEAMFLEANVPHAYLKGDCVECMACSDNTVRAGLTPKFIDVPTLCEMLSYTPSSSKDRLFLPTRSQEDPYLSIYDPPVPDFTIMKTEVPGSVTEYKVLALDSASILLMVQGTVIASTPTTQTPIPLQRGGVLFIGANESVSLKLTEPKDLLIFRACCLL

Alkaline phosphatase, placental type, sequence (P05187 whole entry): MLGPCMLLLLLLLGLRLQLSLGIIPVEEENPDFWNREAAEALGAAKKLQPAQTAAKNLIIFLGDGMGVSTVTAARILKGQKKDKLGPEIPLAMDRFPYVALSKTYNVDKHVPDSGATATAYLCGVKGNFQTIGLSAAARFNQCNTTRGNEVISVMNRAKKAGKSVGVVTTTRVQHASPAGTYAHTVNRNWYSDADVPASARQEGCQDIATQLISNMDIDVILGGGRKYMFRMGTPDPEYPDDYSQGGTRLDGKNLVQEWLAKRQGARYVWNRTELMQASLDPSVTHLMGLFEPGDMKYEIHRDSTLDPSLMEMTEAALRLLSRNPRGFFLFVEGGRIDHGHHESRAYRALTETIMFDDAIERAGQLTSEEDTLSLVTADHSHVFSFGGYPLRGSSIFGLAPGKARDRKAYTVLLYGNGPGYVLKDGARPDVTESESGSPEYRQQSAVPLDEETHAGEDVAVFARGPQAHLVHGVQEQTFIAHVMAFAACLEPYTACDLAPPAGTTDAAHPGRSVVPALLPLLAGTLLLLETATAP
Ras and Rab interactor 1/Tyrosine-protein kinase ABL1, sequence (P00519 whole entry): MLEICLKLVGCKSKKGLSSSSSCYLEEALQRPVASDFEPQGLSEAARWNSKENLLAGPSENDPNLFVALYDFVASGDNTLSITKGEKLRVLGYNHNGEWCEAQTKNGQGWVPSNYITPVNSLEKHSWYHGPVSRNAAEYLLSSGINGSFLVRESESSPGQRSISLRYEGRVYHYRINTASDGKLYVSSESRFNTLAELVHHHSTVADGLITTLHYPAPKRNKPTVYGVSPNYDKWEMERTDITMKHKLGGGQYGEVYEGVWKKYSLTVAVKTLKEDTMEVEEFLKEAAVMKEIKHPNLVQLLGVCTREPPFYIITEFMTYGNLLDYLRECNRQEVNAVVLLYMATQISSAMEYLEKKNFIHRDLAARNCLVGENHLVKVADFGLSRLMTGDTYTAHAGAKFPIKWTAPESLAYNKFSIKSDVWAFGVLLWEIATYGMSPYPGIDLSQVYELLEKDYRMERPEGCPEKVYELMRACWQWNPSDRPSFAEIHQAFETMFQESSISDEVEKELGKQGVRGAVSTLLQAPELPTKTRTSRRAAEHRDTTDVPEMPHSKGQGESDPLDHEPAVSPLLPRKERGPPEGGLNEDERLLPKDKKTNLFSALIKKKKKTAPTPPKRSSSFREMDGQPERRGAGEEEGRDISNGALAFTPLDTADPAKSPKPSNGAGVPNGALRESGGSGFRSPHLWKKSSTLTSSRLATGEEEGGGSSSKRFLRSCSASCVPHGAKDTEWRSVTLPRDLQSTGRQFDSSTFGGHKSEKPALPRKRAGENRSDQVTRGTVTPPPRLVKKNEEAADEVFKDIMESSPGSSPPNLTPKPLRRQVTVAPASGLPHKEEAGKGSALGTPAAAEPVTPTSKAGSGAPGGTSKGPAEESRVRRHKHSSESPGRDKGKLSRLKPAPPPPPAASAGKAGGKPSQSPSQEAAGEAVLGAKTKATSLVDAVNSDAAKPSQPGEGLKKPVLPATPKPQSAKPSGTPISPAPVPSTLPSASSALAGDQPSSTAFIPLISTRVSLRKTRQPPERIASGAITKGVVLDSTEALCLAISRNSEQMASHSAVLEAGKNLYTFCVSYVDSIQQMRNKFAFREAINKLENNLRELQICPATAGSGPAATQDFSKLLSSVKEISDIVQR
Ras and Rab interactor 1/Tyrosine-protein kinase ABL1, sequence (Q13671 whole entry): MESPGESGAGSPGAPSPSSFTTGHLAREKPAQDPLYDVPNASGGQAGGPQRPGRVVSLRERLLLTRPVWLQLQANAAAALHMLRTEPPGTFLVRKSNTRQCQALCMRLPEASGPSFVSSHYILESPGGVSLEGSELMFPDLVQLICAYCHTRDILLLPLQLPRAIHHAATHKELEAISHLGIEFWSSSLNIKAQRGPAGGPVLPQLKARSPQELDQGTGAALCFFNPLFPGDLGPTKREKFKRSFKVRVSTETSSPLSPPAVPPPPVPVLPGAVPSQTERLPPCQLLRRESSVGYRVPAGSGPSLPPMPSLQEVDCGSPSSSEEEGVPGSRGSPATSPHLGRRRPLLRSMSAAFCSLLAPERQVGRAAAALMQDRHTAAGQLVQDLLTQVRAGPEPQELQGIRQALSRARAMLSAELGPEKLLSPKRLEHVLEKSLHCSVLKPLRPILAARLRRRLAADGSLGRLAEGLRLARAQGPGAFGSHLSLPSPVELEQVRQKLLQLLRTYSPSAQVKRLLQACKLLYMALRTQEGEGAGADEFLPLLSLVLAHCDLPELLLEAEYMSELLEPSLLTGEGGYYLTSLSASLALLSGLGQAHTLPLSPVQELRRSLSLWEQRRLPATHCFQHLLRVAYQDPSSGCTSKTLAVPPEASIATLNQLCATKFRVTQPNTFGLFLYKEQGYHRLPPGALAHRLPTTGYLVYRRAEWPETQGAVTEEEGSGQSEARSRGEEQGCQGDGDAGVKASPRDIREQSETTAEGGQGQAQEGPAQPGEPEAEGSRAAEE
Adenosylmethionine-8-amino-7-oxononanoate aminotransferase, sequence (P9WQ81 whole entry): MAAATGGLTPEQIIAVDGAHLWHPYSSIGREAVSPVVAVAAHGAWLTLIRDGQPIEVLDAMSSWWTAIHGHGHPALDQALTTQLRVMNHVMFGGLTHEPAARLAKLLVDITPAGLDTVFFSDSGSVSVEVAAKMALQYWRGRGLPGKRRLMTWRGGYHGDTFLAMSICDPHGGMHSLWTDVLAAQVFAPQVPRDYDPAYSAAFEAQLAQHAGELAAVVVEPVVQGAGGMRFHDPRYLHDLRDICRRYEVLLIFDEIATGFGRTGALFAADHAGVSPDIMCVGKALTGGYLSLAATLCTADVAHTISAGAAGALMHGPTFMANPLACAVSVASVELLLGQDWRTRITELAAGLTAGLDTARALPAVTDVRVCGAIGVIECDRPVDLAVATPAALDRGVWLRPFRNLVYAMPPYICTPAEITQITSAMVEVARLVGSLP
Glyceraldehyde-3-phosphate dehydrogenase, sequence (P04406 whole entry): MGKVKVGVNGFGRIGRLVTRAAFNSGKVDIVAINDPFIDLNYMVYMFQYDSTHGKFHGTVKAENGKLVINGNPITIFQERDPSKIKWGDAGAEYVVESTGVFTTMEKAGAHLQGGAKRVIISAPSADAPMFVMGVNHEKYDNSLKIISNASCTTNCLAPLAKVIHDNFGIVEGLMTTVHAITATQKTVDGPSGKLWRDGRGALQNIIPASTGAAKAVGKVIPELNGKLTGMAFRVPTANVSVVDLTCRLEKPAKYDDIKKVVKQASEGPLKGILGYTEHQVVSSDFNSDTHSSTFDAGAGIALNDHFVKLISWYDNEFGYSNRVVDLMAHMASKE
72 kDa type IV collagenase, sequence (P08253 whole entry): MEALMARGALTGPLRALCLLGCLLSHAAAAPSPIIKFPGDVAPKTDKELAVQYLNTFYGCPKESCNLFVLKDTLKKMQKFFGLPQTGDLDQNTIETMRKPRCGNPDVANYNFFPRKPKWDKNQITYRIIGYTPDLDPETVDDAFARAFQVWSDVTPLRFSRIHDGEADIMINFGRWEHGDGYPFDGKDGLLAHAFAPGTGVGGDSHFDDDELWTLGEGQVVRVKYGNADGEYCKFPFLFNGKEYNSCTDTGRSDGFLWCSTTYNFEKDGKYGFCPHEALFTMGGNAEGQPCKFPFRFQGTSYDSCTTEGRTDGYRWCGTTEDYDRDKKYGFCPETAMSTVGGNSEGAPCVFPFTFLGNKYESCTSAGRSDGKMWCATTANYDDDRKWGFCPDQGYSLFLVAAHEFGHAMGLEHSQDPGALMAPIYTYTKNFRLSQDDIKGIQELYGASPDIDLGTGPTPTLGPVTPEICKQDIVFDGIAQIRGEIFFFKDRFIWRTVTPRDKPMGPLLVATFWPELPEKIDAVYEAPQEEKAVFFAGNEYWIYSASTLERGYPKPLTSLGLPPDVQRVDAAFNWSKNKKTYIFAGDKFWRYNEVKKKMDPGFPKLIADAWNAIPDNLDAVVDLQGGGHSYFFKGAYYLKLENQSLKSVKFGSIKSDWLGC
26S proteasome non-ATPase regulatory subunit 14, sequence (O00487 whole entry): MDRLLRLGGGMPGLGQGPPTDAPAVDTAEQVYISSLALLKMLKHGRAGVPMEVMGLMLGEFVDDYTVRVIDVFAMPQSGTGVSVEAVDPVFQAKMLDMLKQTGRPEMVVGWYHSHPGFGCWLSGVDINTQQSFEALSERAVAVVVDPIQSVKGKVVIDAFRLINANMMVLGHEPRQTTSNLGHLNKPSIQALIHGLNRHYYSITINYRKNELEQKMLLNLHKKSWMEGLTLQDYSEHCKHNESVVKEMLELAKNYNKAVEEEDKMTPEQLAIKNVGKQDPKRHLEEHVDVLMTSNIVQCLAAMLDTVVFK
Cytochrome P450 2D6, sequence (P10635 whole entry): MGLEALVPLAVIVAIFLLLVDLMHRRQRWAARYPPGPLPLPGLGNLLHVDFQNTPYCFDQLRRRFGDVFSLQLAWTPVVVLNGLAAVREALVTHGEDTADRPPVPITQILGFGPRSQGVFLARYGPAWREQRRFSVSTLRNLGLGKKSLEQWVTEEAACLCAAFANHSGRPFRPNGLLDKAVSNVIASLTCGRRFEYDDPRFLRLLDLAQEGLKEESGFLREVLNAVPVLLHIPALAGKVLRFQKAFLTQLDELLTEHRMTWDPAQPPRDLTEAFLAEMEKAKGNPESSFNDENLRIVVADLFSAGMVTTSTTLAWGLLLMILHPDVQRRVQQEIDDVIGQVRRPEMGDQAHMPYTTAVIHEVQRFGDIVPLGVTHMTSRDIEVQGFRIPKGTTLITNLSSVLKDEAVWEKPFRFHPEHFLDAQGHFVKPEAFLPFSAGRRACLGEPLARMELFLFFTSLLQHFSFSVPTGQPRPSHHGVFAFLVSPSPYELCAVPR

## Cc1csc(NC(=O)Cc2c[nH]c3ccccc23)n1
[1]
  AC50: 320 µM (active)
[2]
  EC50: 9.34 µM (active)
[3]
  IC50: > 50 µM (inactive)
[4]
  AC50: 22.4 µM (inconclusive)

## COC(=O)c1ccc(N2NC(=O)/C(=C/c3cc(OC)c(O)c(OC)c3)C2=O)cc1
[5]
  IC50: 81.6 µM (active)
[6]
  IC50: 27 µM (active)
[7]
  IC50: 18.5 µM (active)

## COc1cc(-c2nnc(S)n2C(C)c2ccccc2)cc(OC)c1OC (configuration not stated)
[8]
  AC50: 5.84 µM (active)

## O=C(O)c1cc(-c2cc(F)c(Cl)cc2Cl)n[nH]1
[9]
  IC50: 1.09 µM (active)
[10]
  IC50: > 100 µM (inactive)
[11]
  IC50: > 100 µM (not active)

## O=C(Cn1nnc(-c2ccccc2)n1)OCc1csc(-c2ccccc2)n1
[3]
  IC50: > 50 µM (inactive)

## C#CCOc1nc(Nc2cccc([N+](=O)[O-])c2)nc(OCC#C)n1
[12]
  IC50: > 79 µM (inactive)
[3]
  IC50: > 50 µM (inactive)

## Cc1ccccc1-n1nc(CSc2nc3ccccc3[nH]2)c(-c2ccccc2)c1N
[10]
  IC50: > 100 µM (inactive)

## O=C(COC(=O)c1[nH]nc2ccccc12)Nc1ccccc1
[13]
  IC50: > 67.5 µM (inactive)
[14]
  IC50: > 67.5 µM (inactive)

## O=c1[nH]n(CC2COC3(CCCCC3)O2)c(=O)c2ccccc12 (configuration not stated)
[12]
  IC50: > 79 µM (inactive)
[15]
  EC50: 79 µM (active)
[16]
  IC50: 12.5 µM (inactive)

## CCSc1nnc(NC(=O)C(C)(C(F)(F)F)C(F)(F)F)s1
[17]
  IC50: 2.82 µM (active)
[18]
  IC50: 3.47 µM (active)

## O=C(NCc1cccc(C(F)(F)F)c1)c1cccc2c1C(=O)c1ccc(N3CCC(Cc4ccccc4)CC3)cc1S2(=O)=O
[19]
  IC50: > 49.8 µM (inactive)

## CCCCC(=O)C1CCN(Cc2ccccc2)CC1
[16]
  IC50: 19.4 µM (inactive)

## Cc1cc(C)n2nc(C(=O)Nc3cccnc3)nc2n1
[8]
  AC50: 4.85 µM (active)

## COc1ccc(-c2cc(C(=O)O)[nH]n2)c(OC)c1
[9]
  IC50: 38.2 µM (active)
[11]
  IC50: > 100 µM (not active)

## COc1ccc(C(=O)Nc2ccccc2C(=O)O)cc1
[20]
  IC50: > 25 µM (inactive)

## Clc1ccnc(/N=c2\ssnc2Cl)c1
[21]
  IC50: > 100 µM (inactive)

## O=C1CSC(=S)N1N=Cc1ccc(Cl)s1
[5]
  IC50: > 100 µM (inactive)
[6]
  IC50: 27.1 µM (active)
[7]
  IC50: 59.4 µM (active)

## COc1cccc(C(=O)Nc2cc(Cl)ccc2C(=O)O)c1
[20]
  IC50: 17.9 µM (active)

## C=CCn1c(SCC(=O)c2ccc(O)c(O)c2)nnc1-c1ccccc1
[9]
  IC50: 19.5 µM (active)
[10]
  IC50: 2.53 µM (active)

## COc1ccc(C(=O)C[n+]2cccc(Br)c2)cc1
[17]
  IC50: 1.19 µM (active)
[18]
  IC50: 4.21 µM (active)
